Measured values reported in patent publication US20230220047A1, “PEPTIDES FOR TREATMENT OF SEPSIS AND CANCER” (NORWEGIAN UNIVERSITY OF SCIENCE AND TECHNOLOGY (NTNU), priority 2020, published 2023).

Columns and labels:
primary human monocytes = experiment: Confocal analysis of E. coli particle uptake by primary human monocytes; type: cell-based; conditions: 3 μM, similar extent as P7-Pen
Method: Cells were pre-incubated with Pen or P7-Pen peptides, followed by addition of Alexa Fluor 488-labeled bioparticles for the times indicated (15, 30 or 45 min). Fluorescent bacteria particles were counted by spot-detection in Bitplane Imaris imaging software and used to calculate the number of particles per cell. […] Pre-incubation with 3 μM cytochalasin D (CytoD, and inhibitor of actin polymerization) inhibited uptake of E. coli to a similar extent as P7-Pen.
THP-1 cells, THP-1^cherry cells or human PBMC were seeded in 24-well glass-bottom plates (MatTek Corporation), 125,000 cells/well. The THP-1 cells were differentiated into macrophages with 60 ng/ml PMA for 72 h and thereafter rested for 48 h, whereas the PBMC were used the day after isolation. The P7-penatratin peptide or control peptide was added to the cells 30 min before stimulation at 15 μM concentration. If used, 3 μM cytochalasin D (CytoD) was added simultaneously. […] A spot detection mode in the Bitplan Imaris software was used to define individual phagosomes and cells were counted manually. […] Fluorescence voxel intensity of TRAM^cherry at the phagosome is also presented. Statistical significance was calculated in GraphPad Prism by One-way ANOVA Kruskal-Wallis multiple comparison test. […]

TLR4 [1] = experiment: qPCR of TLR4-mediated cytokine expression in B6 immortalised murine macrophages; type: cell-based, mouse; conditions: 10 μM, 1 h pre-treatment, LPS 100 ng/ml
Method: Cells were pre-treated with 10 μM peptides in cell culture media for 1 h, and stimulated with LPS (100 ng/ml) for increasing lengths of time.
Immortalized bone-derived-macrophages (iBMDM) from wild type, Tram−/− or TIr4−/− C57BL/6 mice were maintained at 37° C. and 5% CO2 in DMEM supplemented with 10% FCS.
(§1) Total RNA was isolated from the cells using Qiazol reagent #79306 from QIAGEN, and chloroform extraction followed by purification on RNeasy Mini columns with DNAse digestion (Qiagen). cDNA was prepared using the Maxima First Strand cDNA Synthesis Kit for quantitative real-time polymerase chain reaction (RT-qPCR) (Thermo Fisher Scientific) according to the manufacturer's protocol. qPCR was performed using the PerfeCTa qPCR FastMix (Quanta Biosciences) in replicates and cycled in a StepOnePlus™ Real-Time PCR cycler. The following TaqMan® Gene Expression Assays (Applied Biosystems®) were used: IFNβ (Hs01077958_s1), TNF (Hs00174128_m1), TBP (Hs00427620_m1), CXCL10 (Hs01124251_g1), IL-6 (Hs00174131_m1) and IL-1β (Hs01555410_m1), for human cells; Ifnβ (Mm00439552_s1), Tnf (Mm00443258_m1), Tbp (Mm01277042_m1) and II-1β (Mm00434228_m1), for mouse cells. No RT controls were negative. The level of TBP mRNA was used for normalisation and results presented as relative expression compared to the control untreated sample. Relative expression was calculated using Pfaffl's mathematical model (Pfaffl, Nucleic Acids Research 29(9): e45, 2001). Results are presented as the mean and SD expression fold change for biological replicates relative to non-stimulated cells. Statistical significance was evaluated in GraphPad Prizm 5.03. Data distribution was assumed to be normal but this was not formally tested. The difference between the two groups was determined by two-tailed t test.
We proceeded with cellular assays to address the effect of peptide pre-treatment on TLR4-mediated cytokine expression in B6 immortalised murine macrophages (FIG. 13). Tested peptides had no cytotoxic effect on B6 murine macrophages (FIG. 13A).

THP-1 cells = experiment: LDH cytotoxicity assay in THP-1 cells; conditions: CPP screen, 15 μM, 30 min pre-treatment, LPS 100 ng/ml
Method: For every assay, separate wells were seeded for the required controls (Spontaneous LDH Release Controls and Maximum LDH Release Control) with the same amount of cells as used for peptide treatments. All supernatants were analysed in triplicate with the average value of technical replicates taken into calculations.
THP-1 cells were pre-treated with increasing concentrations of P7-Arg11 and control peptide Arg11 for 1 h (FIG. 3).

SLAMF1-TRAM interaction = molecular target: T1, SLAMF1-TRAM interaction (Homo sapiens, UniProt Q86XR7); experiment: Co-precipitation of SLAMF1 and TRAM^Flag in the presence of ECFP-tagged peptides; type: binding; conditions: N-terminal ECFP-tagged peptides, HEK-293T lysates, anti-Flag IP
T1 construct: expressed in transfected cells; host or cells: HEK-293T
T1 sequence (Q86XR7 whole entry): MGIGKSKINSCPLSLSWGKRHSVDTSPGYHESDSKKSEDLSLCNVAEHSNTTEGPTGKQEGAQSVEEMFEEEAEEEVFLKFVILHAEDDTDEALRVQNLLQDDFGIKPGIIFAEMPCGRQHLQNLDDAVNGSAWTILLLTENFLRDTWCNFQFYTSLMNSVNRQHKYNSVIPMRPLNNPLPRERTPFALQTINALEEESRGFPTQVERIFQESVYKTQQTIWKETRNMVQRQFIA
Description: (A) Western blot analysis of SLAMF1 and TRAM^Flag co-precipitated in the presence of CFP-tagged peptides. TRAM^Flag was precipitated from cell lysates on agarose beads and distributed across 15 tubes. […] Unbound proteins/peptides were removed by a washing step, and pecipitates analysed by WB (anti-Flag IPs). Reduced SLAMF1 binding to TRAM indicates inhibition of the TRAM/SLAMF1 interaction by the peptide. (B) Sequences of the peptides that were expressed as ECFP-tagged proteins (N-terminal ECFP). Peptides 4 and 5 are not shown and were not pursued.
HEK293T cells expressing Flag-tagged proteins were lysed using 1×lysis buffer (150 mM NaCl, 50 mM TrisHCl (pH 8.0), 1 mM EDTA, 1% NP40), supplemented with EDTA-free Complete Mini protease Inhibitor Cocktail Tablets and PhosSTOP phosphatase inhibitor cocktail from Roche, 50 mM NaF and 2 mM […] (Sigma). IPs were carried out by rotation of cell lysates at 4° C. for 2 h with anti-flag (M2) agarose (Sigma). Beads were washed 5 times with lysis buffer and heated for 5 min with 1×NuPAGE® LDS Sample Buffer (Thermo Fisher Scientific) before analysis of precipitates by Western blotting. […]
Inhibition of the TRAM-SLAMF1 interaction using SLAMF1-derived peptides was tested. For the first line of experiments, SLAMF1-derived peptides were co-expressed as N-terminal ECFP-tagged proteins together with SLAMF1 and TRAM^FLAG constructs in HEK-293T cells.

[2] = tested on: ANBL-6 multiple myeloma cells; experiment: CellTiter-Glo cell viability assay, ANBL-6; type: cell-based; conditions: 20 μM, 48 h
Method: Minor effects on the proliferation of the IH-1 and RPMI 8226 cell lines are seen. Cells were seeded at the level shown (left-hand bar of each set) then incubated in medium containing water, 10 μM penetratin or 10 μM P7-A4-Pen for 48 hr (except for INA-6 cells, which were incubated with 12.5 μM penetratin or 12.5 μM P7-A4-Pen). The number of viable cells was detected based on quantitation of ATP by luminescent signal in correlation to a standard curve prepared for each cell line. Results are based on 3-5 biological replicates for each condition, error bars show standard deviation of mean.
Cells were seeded and then incubated in growth medium alone or supplemented with water, DMSO, 15 μM penetratin or 15 μM investigational peptide. The growth medium only and H2O—, DMSO- and penetratin-supplemented cultures constituted controls.
The solid horizontal lines show the amount of cells originally seeded. In (A) ANBL-6 cells were seeded at a level of 10,000 cells/well, then incubated in medium supplemented with water, the control peptide C3A-Pen, P7-Pen, P7-A4-Pen, P7-N4-Pen or P7-K2-Pen for 48 hours. The peptides were included at concentrations of 5, 10, 12.5, 15, 20 or 30 μM. Cells were counted at 48 hours. In (B), ANBL-6 cells were seeded at a level of 5000 cells/well, then incubated in medium supplemented with water, P6-Pen, P-P6-Pen, P7-D4-Pen or P7-A4-Pen for 48 hours. Peptides were included at concentrations of 5, 10 or 20 μM. Cells were counted at 48 hours. […] Results are based on 3 biological replicates, error bars show standard deviation of mean.
Multiple myeloma cells JJN-3 (DSMZ (Germany) no. ACC 541), ANBL-6 (Cellosaurus accession number CVCL_5425, obtained from Dr Diane Jelinek, Mayo Clinic, Rochester, Minn.), INA-6 (Cellosaurus accession number CVCL_5209, obtained from Dr M. Gramatzki, University of Erlangen-Nurnberg, Erlangen, Germany), RPMI-8226 (ATCC CCL-155), and IH-1 (Cellosaurus accession number CVCL_WZ44, established from the pleural effusion of a myeloma patient by Myeloma research group, IKOM, NTNU, Trondheim, Norway) were grown in RPMI-1640 (Sigma-Aldrich Norway, Oslo, Norway) supplemented with 100 nM penicillin/streptomycin and 10% FCS, and for ANBL-6, IH-1 and INA-6 cells 2 ng/ml recombinant IL-6 (Gibco, Thermo Fisher Scientific, Waltham, Mass., USA). Murine multiple myeloma Vk*MYC cells were obtained from M.D. Leif Bergsagel (Mayo Clinic, Richester, Minn., USA) and cultured in RPMI-1640 supplemented with 2% human serum (B^+, The blood bank, St Olav's Hospital, Trondheim, Norway), 100 nM penicillin/streptomycin, L-Glutamine (2 mM) and recombinant IL-6 (1 ng/ml). HEK293T (ATCC CRL-3216) were cultured in DMEM with 10% FCS. THP-1 TRAM knockout (KO) and TLR4 KO cell lines, and matching lentivirally transduced control cell lines, were differentiated in the same way as wild type (WT) THP-1. TRAM KO THP-1 cell line is described in Yurchenko et al. (supra).
To evaluate the potential impact of the P7 peptide on proliferation of tumour cells of lymphoid origin, we performed a CellTiter-Glo Luminescent Cell Viability Assay to address proliferation of several multiple myeloma (MM) cell lines. For the assay, cells were incubated for 48 h in respective media containing either solvent (water), 10 μM control peptide (Pen) or the SLAMF1-derived peptide P7-A4-Pen for 48 h (FIG. 32) (with the exception of the INA-6 cells which were incubated with 12.5 μM control peptide or P7-A4-Pen). […] This effect could be mediated by P7-A4-Pen-induced inhibition of signalling pathways that are crucial for driving proliferation and/or survival of MM tumour cells.

TLR4 [3] = experiment: qPCR of LPS-mediated cytokine mRNA expression in THP-1 macrophages; type: cell-based, human; conditions: 15 μM
Method: SW480 (ATCC CCL-228) and Jurkat (ATCC Clone E6-1; TIB-152) cells were cultured in RPMI 1640 (Sigma-Aldrich, Schnelldorf, Germany) supplemented with 10% heat-inactivated FCS, penicillin/streptomycin (Life Technologies) and 20 mM L-Glutamine. THP-1 cells (ATCC TIB-202) were cultured in RPMI-1640 (high-glucose, ATCC) supplemented with 10% heat inactivated foetal calf serum (FCS), 100 nM penicillin/streptomycin and 5 μM β-mercaptoethanol (Sigma). THP-1 cells were differentiated with 60 ng/ml phorbol 12-myristate 13-acetate (PMA, Sigma) for 72 h, followed by 24 or 48 h in medium without PMA.
as §1

STAT1 = experiment: Western blot of STAT1 phosphorylation in LPS-stimulated THP-1 cells; type: cell-based, human; conditions: 15 μM, compared to control peptide
Method: Protein pellets were dissolved by heating protein pellets for 10 min at 95° C. in buffer containing 4 M urea, 1 SDS (Sigma) and NuPAGE® LDS Sample Buffer (4×) (Thermo Fisher Scientific). Otherwise, lysates were made using 1× RIPA lysis buffer (150 mM NaCl, 50 mM TrisHCl (pH 7.5), 1% Triton X100, 5 mM EDTA, protease inhibitors, phosphatase inhibitors). For Western blot analysis we used pre-cast protein gels NuPAGE™ Novex™ and iBlot Transfer Stacks iBlot Gel Transfer Device (Thermo Fisher Scientific). Proteins were transferred to the membrane by dry-blotting using iBlot® 2 NC Regular/Mini Stacks (Life Technologies) in the iBlot 2 Dry Blotting System (Life Technologies). After secondary antibody incubation, membranes were washed and incubated with HRP substrate solution (SuperSignal™ West Femto Maximum Sensitivity Substrate (Thermo Fisher Scientific)). Images were taken using Odyssey® Fc (LI-CORE). Quantification graphs were generated by the analysis of signal intensities for protein bands (protein of interest and endogenous loading control—β-tubulin from the same membrane) using Odyssey software (LI-CORE). Data were normalised to the expression levels of β-tubulin and presented as a relative fold change to the control sample.

## C=C1[C@@H](C)[C@H]2[C@H](Cc3ccccc3)NC(=O)[C@]23[C@H](OC(C)=O)/C=C/[C@@](C)(O)C(=O)[C@@H](C)C/C=C/[C@H]3[C@@H]1O [cytochalasin D, reference compound]
Primary human monocytes
  uptake of E. coli: inhibited

## Ac-ITVYASVTLTGKLALKLALKALKAALKLA-NH2 [Peptide P7-KLA]
TLR4 [1]
  TLR4-mediated Ifnβ, Tnf and Il-1β mRNA expression: strongly inhibited
THP-1 cells
  reduction of LPS-mediated toxicity (LDH assay): most effective

## P6: SEQ ID NO: 2; amino acid sequence of SLAMF1 positions 324-333 (ITVYASVTLP; listed as Homo sapiens) [Peptide P6]
SLAMF1-TRAM interaction
  inhibitory effect on SLAMF1-TRAM co-precipitation: highest efficacy
[2]
  anti-proliferative activity at the highest tested concentration: moderate anti-proliferative

## TNSITVYASVTLTESGRRRRRRRRRRR (P3-Arg11) [Peptide P3-Arg11]
TLR4 [3]
  LPS-mediated cytokine mRNA expression: not effective
STAT1
  phosphorylation of STAT1 upon LPS stimulation: no effect
